Data reported in a compilation of properties of binary mixtures (doi:10.1016/j.fluid.2023.113736).

Test: xn = mol fraction of the nth substance listed
Settings: 100 kPa, x1 = 0.5

C[N+](CCO)(CCO)CCOCCO.[Cl-] + NC(N)=O
Settings	viscosity [mPa·s]
283.15 K	45000
288.15 K	23200
293.15 K	12700
298.15 K	7350
303.15 K	4396
308.15 K	2744
313.15 K	1766
318.15 K	1172
323.15 K	794
333.15 K	400
338.15 K	295
